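Growth conditions: 96-well plates. Treatment: test compound, 48 hours, 5 concentrations. Analysis: linear interpolation between bracketing concentrations; unreached endpoints set to highest concentration. The concentration for 50% growth inhibition is given as GI50. TGI marks complete inhibition of growth.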

Drawing on PubChem BioAssay (NCI), this text covers TGI and GI50 for 16 molecules.

Assay in all cases: NCI anticancer screen, dose series, 48 h
Assay [1] concerns HOP-92 NSCLC.
Assay [2] relates to OVCAR-8 ovarian.
Assay [3] concerns RXF 393 renal.
The test system of assay [4] is HL-60(TB) leukemia.
Assay [5] concerns OVCAR-4 ovarian.
The subject of assay [6] is A549 NSCLC.
The test system of assay [7] is HCT-15 colon.
For assay [8], the system named is HS 578T breast.
Assay [9] has as its system NCI/ADR-RES ovarian.

For `CC(=O)OC1=C2CC[C@@H]3C(CC[C@@]4(C)C3CC[C@@H]4OC(C)=O)[C@@]2(C)CC(C#N)C1=O` (some centres not stated), the TGI in assay [1] was 54.9 µM; in assay [2] it was over 100 µM; in assay [3], over 100 µM; in assay [4], 42.6 µM; in [5], 59.4 µM; in [6] it was over 100 µM. This molecule yielded a TGI in [7] of over 100 µM.

In the case of `Cc1[nH]c2ccccc2c1C1=NO/C(=N\O)C(c2c(C)[nH]c3ccccc23)C1` (configuration not stated), the TGI in [1] is over 78.5 µM; in assay [2], over 100 µM; in assay [3], 87.1 µM; in assay [4], 54 µM; in [5], over 100 µM; in [6] it was over 100 µM. In [7], the TGI was over 100 µM.

`CN=C1CN=C(OP(=O)(N2CCOCC2)N2CCOCC2)c2cc(Cl)ccc2N1`: the TGI in [2], in assay [3], in [4], in [5], in [6] and in [7] was over 100 µM in each case.

Turning to `COc1cc(/C=C2\NC(=O)C3Cc4c(OC)c(C)c(OC)c(OC)c4C2N3C)c(OC)c(C)c1OC` (configuration not stated), the TGI in assay [1], in assay [2], in assay [3], in assay [4], in assay [5] and in [6] was over 100 µM in each case.

Take `COc1ccc2c(c1)C(=O)c1c-2c(N2CCN(C(=O)CCNCCNCCN)CC2)nc2ccccc12`: the GI50 is 2.44 µM in [1]; 19.9 µM in assay [2]; 3.03 µM in assay [4]; 20.4 µM in assay [5]; 9.51 µM in [6]; 14.2 µM in assay [8]. Moreover, the TGI was 10.6 µM in assay [1]; 72.2 µM in assay [2]; 6.83 µM in assay [4]; 38.3 µM in assay [5]; 29.4 µM in [6]; 46.5 µM in [8].

Take `C/C(CC(C)(C)N1CC1)=N\NC(=O)Nc1cccc2ccccc12`: the GI50 in [9] is 3.67 µM; in assay [1], 1.65 µM; in assay [2], 2.64 µM; in assay [3], 2.08 µM; in [4], 2.04 µM; in assay [5], 4.23 µM. Besides, the values for the GI50 in [6], in assay [8] and in [7] were 3.53 µM, 2.45 µM and 3.24 µM, respectively. In addition, the TGI in [9] came to 22.4 µM; in [1], 6.99 µM; in [2] it was 13.4 µM; in [3], 5.46 µM; in [4], 5 µM; in [5] it was 15.9 µM. Besides, the TGI in [6] was 14.2 µM; in assay [8], 24.7 µM; in assay [7], 17.4 µM.

As to `CCOC(=O)CNC(=O)OCc1ccccc1`, the TGI in [1], in assay [2], in [4], in assay [6] and in [7] was over 100 µM in each case.

On to `[Co].[O-]c1cccnc1C=Nc1ccccc1.[OH3+]`, for which the GI50 in assay [1] is 28.7 µM; in [2], over 100 µM; in [4] it was 21.8 µM; in assay [5], over 100 µM; in assay [6], over 100 µM; in assay [7] it was 50.4 µM. Further, the TGI in assay [1], in [2], in assay [4], in [5], in assay [6] and in [7] was over 100 µM each time.

Regarding `Cc1ccc(/C=N/NS(=O)(=O)c2ccccc2)cc1C`, the TGI in [1], in assay [2], in assay [3], in [4], in [5] and in assay [6] was over 100 µM in each case. Further, the TGI in assay [7] was over 100 µM.

Turning to `CC(=O)NCc1c(C(N)=O)ncn1Cc1ccccc1`, the TGI in [1], in assay [2], in assay [3], in assay [4], in [5] and in assay [6] was over 100 µM throughout. This molecule had a TGI in [7] of over 100 µM.

Take `O=C(O)CCSC(=O)Nc1cccc2ccccc12`: the TGI in assay [1], in [2], in [3], in [5], in assay [6] and in assay [7] was over 100 µM throughout.

On to `COc1ccc(-c2oc3c(OC)c(OC)c(OC)c(O)c3c(=O)c2OC)cc1O`, for which the GI50 in [2] and in assay [6] was under 0.01 µM in each case. In addition, the TGI in assay [2] was over 100 µM; in [3] it was 0.504 µM; in assay [4], under 0.01 µM; in [5], over 100 µM; in assay [6], 12.3 µM.

Consider `O=[N+]([O-])c1cc(I)cc(/C=N/NS(=O)(=O)c2ccc(Cl)cc2)c1O`, for which the TGI is 37.6 µM in assay [1]; 37.6 µM in assay [2]; 45.4 µM in [3]; 55.8 µM in assay [4]; 85.6 µM in assay [5]; over 100 µM in assay [6]. In addition, in [7], the TGI turned out to be 38.7 µM.

Take `CO/C=C(\Br)c1ccc2c(c1)OCO2`: the TGI in [1], in assay [2], in [3], in assay [4], in assay [5] and in [6] was over 100 µM each time.

For the molecule `O=C(C=Nc1ccccc1S)c1ccco1`, the TGI amounted to 27.3 µM in assay [2]; 29 µM in [3]; 22.3 µM in [4]; 26.4 µM in [5]; 22.4 µM in assay [6]; 27.4 µM in assay [7].

As for `CC(=O)[CH-]C(C)=O.CC(=O)[CH-]C(C)=O.[Cl-].[O]=[V]`, the GI50 in assay [2] was 46.4 µM; in [3], 10.9 µM; in assay [6], 36.3 µM; in assay [7] it was 36.8 µM. Besides, the TGI was over 100 µM in [2], 24.6 µM in assay [3], over 100 µM in assay [6] and over 100 µM in assay [7].
